Experimental data as given in patent US20100311714A1, “1H-IMIDAZO[4,5-c]QUINOLINONE COMPOUNDS” (priority 2009, published 2010).
Values after ≈ are worked out from the molar mass of the structure shown.

Assays:
[1] = test system: PKB Ser473 phosphorylation in Rat1-myr-HA-p110 beta cells; test: Reverse protein array, PKB Ser473 phosphorylation in Rat1-myr-HA-p110 beta cells; type: cell-based; details: Rattus norvegicus, 0.5 h, 30 minutes compound incubation, read-out: p-PKB/IC50_beta
Method: (§1) No. 15140-114) and 10 μg/ml Puromycine (Sigma, cat. No. P9620).
(§2) The Rat1-myr-HA-p110 alpha, beta and delta cells were trypsinized and counted with a CASY TT cell counter (Schärfe System GmbH, Reutlingen Germany). The cells were diluted in fresh DMEM complete medium and 3×10^4 cells/150 μl/well seeded in 96-well TPP-tissue culture plates (TPP, cat. No. 92096). The plates were incubated at 37° C. and 5% CO2 under humidified condition for at least 20 h. Compound of formula I working solutions were prepared freshly as serial 8 step dilutions (vol/vol) in DMSO on the day of the experiment. The working solutions were further diluted 1/500 in cell culture medium to get final compound concentrations of 10, 3.333, 1.111, 0.370, 0.123, 0.041, 0.014, 0.005 μM. The final DMSO concentration was kept constant at 0.2%. cell culture medium containing 0.2% DMSO was used as vehicle treatment control. Post incubation, the cells were treated with the serial compound dilution. 50 μl of the compound medium mixture was added to the wells containing cells and 150 μl DMEM medium and incubated for 30 minutes (37° C., 5% CO2). After 30 minutes of incubation, the medium mixture was quickly removed by aspiration. For cell lysis, a mixture of 10% CLB1 CeLyA lysis buffer (Zeptosens, cat. No. 9000), 90% CSBL1 CeLyA spotting buffer (Zeptosens, cat. No. 9020) was freshly prepared and supplemented with 1% Octyl β-D-glucopyranoside (SIGMA, cat. No. 08001-5G) and 1 mM Na-Orthovanadate (Sigma, cat No. S-6508). 50 μl of the described lysis buffer mix was added to each well, followed by 10 minutes of incubation on ice. After an additional freeze-thaw cycle, another 50 μl of the lysis buffer mix without Octyl β-D-glucopyranoside was added to the wells, and 90 μl of the cell lysate was transferred to a 96-well V-bottom plate (Fisher Scientific, cat. No. 6067Y), followed by a centrifugation step (5 min, 1500 rpm at 19° C. in an Eppendorf 5810R centrifuge) to remove the unlysed cell debris.
(§3) The samples were spotted onto ZeptoMARK® PWG protein microarray chips (Zeptosens, Witterswil, Switzerland) with the piezoelectric microdispense-based, non-contact Nano-Plotter 2.1 (GeSiM, Grosserkmannsdorf, Germany). Each sample was spotted at 4 different sample concentrations (d1=100%, d2=75%, d3=50%, d4=25%) by diluting the cell lysate with the corresponding volume of lysis buffer mix. After spotting the ZeptoMARK® protein microarrays, the chips are incubated for 1 hour at 37° C. To receive a uniform blocking result, the CeLyA blocking buffer BB1 (Zeptosens, cat. No. 9040) is administered via an ultrasonic nebulizer. After 20 minutes of blocking the chips are extensively rinsed with deionized water (Milli-Q quality, 18MΩ×cm) and dried in a nitrogen air flow.
(§4) After the sample spotting and blocking procedure, the ZeptoMARK® chips were transferred to the ZeptoCARRIER (Zeptosens, cat. No. 1100), whose six flow cells individually address the six arrays on a chip, and washed twice with 200 μl CAB1 CeLyA assay buffer (Zeptosens, cat. No. 9032). The assay buffer was then aspirated and each compartment incubated with 100 μl of the primary target antibody (pAkt Ser473; CST#9271) at RT over night. Post incubation, the primary antibody was removed, the arrays washed twice with CAB1 buffer and further incubated with 100 μl of Alexa fluor 647-labeled anti rabbit IgG Fab fragments (Invitrogen; #Z25305) for one hour at RT in the dark. After incubation, the arrays were washed twice with 200 μl CAB1 buffer. The fluorescence of the target-bound Fab fragments is read out on the ZeptoReader (Zeptosens, Witterswil, Switzerland) using a laser (excitation wavelength 635 nm) and a CCD camera. The fluorescence signal was assessed with exposure times of 1, 3, 5 and 10 seconds, depending on the intensity of the signal. The resulting four images taken per array are stored as 16-bit TIF files. […]

[2] = High-throughput equilibrium solubility at pH 6.8; type: physicochemical; details: pH 6.8, aqueous buffer, thermodynamic from solid; read-out: HT-Eq Sol/pH 6.8
Source text: (§5) The physicochemical properties of relevance for the absorption of the compound, such as the solubility and the membrane permeability, especially at a pH close to neutral pH can be measured using the procedure as described by L. ZHOU et al. in JOURNAL OF PHARMACEUTICAL SCIENCES, VOL. 96, NO. 11, p. 3052-3071 (2007) for the solubility at pH 6.8 and the procedure as described by F. Wohnsland and B. Faller in Journal of Medicinal Chemistry Vol 44, p. 923-930 (2001) for the Parallel Artificial Membrane Permeability Assay (PAMPA) at pH 6.8.

[3] = test system: PKB Ser473 phosphorylation in Rat1-myr-HA-p110 delta cells; test: Reverse protein array, PKB Ser473 phosphorylation in Rat1-myr-HA-p110 delta cells; type: cell-based; details: Rattus norvegicus, 0.5 h, 30 minutes compound incubation, read-out: p-PKB/IC50_delta
Method: as §1, §2, §3, §4

[4] = test system: PKB Ser473 phosphorylation in Rat1-myr-HA-p110 alpha cells; test: Reverse protein array, PKB Ser473 phosphorylation in Rat1-myr-HA-p110 alpha cells; type: cell-based; details: Rattus norvegicus, 0.5 h, 30 minutes compound incubation, read-out: p-PKB/IC50_alpha
Method: as §1, §2, §3, §4

[5] = Parallel Artificial Membrane Permeability Assay (PAMPA) at pH 6.8; type: physicochemical
Source text: as §5
The following permeability log Pe was measured for compound of formula (I) as exemplified below: […]

[6] = test system: S6 Ribosomal Protein phosphorylation Ser235/236 in TSC1 null mouse embryo fibroblast (MEF) cells; test: Reverse protein array, S6 Ribosomal Protein phosphorylation in TSC1 null MEF cells; type: cell-based; details: 1 h, TSC1-/- MEFs, 60 minutes, read-out: p-S6 IC50
Method: TSC1−/− MEFs cells (provided by D. Kwiatkowski), were cultivated in Dulbecco's modified Eagle's medium (DMEM high Glucose, GIBCO, cat. No. 41956-039) supplemented with 10% heat inactivated fetal bovine calf serum (Amimed, cat. No. 2-01F16-I), 1% L-Glutamine (Invitrogen, cat. No. 25030-02), 1% penicillin-streptomycin (GIBCO, cat. No. 15140-114) at 37° C. in a 5% CO2 and 95% relative humidity atmosphere incubator.
The TSC1−/− cells were trypsinized and counted with a CASY TT cell counter (Schärfe System GmbH, Reutlingen Germany). The cells were diluted in fresh DMEM complete medium and 0.75×10^4 cells/150 μl/well seeded in 96-well TPP-tissue culture plates (TPP, cat. No. 92096). The plates were incubated at 37° C. and 5% CO2 under humidified condition for at least 20 h. Working solutions were prepared freshly as serial 8 step dilutions (vol/vol) in DMSO on the day of the experiment. The working solutions were further diluted 1/5000 in cell culture medium to get final compound concentrations of […]. The final DMSO concentration was kept constant at 0.02%. cell culture medium containing 0.02% DMSO was used as vehicle treatment control. Post incubation, the cells were treated with the serial compound dilution. 50 μl of the compound medium mixture was added to the wells containing cells and 150 μl DMEM medium and incubated for 60 minutes (37° C., 5% CO2). After 60 minutes of incubation, the medium mixture was quickly removed by aspiration. For cell lysis, a mixture of 10% CLB1 CeLyA lysis buffer (Zeptosens, cat. No. 9000), 90% CSBL1 CeLyA spotting buffer (Zeptosens, cat. No. 9020) was freshly prepared and supplemented with 1% Octyl β-D-glucopyranoside (SIGMA, cat. No. 08001-5G) and 1 mM Na-Orthovanadate (Sigma, cat No. S-6508). 50 μl of the described lysis buffer mix was added to each well, followed by 10 minutes of incubation on ice. After an additional freeze-thaw cycle, another 50 μl of the lysis buffer mix without Octyl β-D-glucopyranoside was added to the wells, and 90 μl of the cell lysate was transferred to a 96-well V-bottom plate (Fisher Scientific, cat. No. 6067Y), followed by a centrifugation step (5 min, 1500 rpm at 19° C. in an Eppendorf 5810R centrifuge) to remove the unlysed cell debris.
The spotting of the chips follows the previous described method.
The signal detection and the data analysis follows the previous described method using the pS6 ribosomal protein Ser235/236 (CST, cat. No. #2211) as a primary antibody.

IC50 [1] [nM]	solubility thermodynamic [2] [µg/mL]	IC50 [3] [nM]	IC50 [4] [nM]	HT-perm/logPe pH6.8 [5]	HT-Perm logPe pH6.8 [5]	SMILES	IC50 [6] [nM]
9.39	21 (≈ 40.3 µM)	52.9	6.5			COc1nc(N2CCNCC2)ccc1-n1c(=O)n(C)c2cnc3ccc(-c4cnc5c(ccn5C)c4)cc3c21 [Example 9.3, 1-(2-Methoxy-6-piperazin-1-yl-pyridin-3-yl)-3-methyl-8-(1-methyl-1H-pyrrolo[2,3-b]pyridin-5-yl)-1,3-dihydro-imidazo[4,5-c]quinolin-2-one]	
74.1	14 (≈ 34.4 µM)	109	58.5	−5.0		Cc1cccnc1-n1c(=O)n(C)c2cnc3ccc(-c4cnc5[nH]ccc5c4)cc3c21 [Example 3.2, 3-Methyl-1-(3-methyl-pyridin-2-yl)-8-(1H-pyrrolo[2,3-b]pyridin-5-yl)-1,3-dihydro-imidazo[4,5-c]quinolin-2-one]	

Second part, the compound before the results:

SMILES	IC50 [1] [nM]	solubility thermodynamic [2] [µg/mL]	IC50 [3] [nM]	IC50 [4] [nM]	HT-perm/logPe pH6.8 [5]	HT-Perm logPe pH6.8 [5]	IC50 [6] [nM]
Cc1ccncc1-n1c(=O)n(C)c2cnc3ccc(-c4ccc(N(C)C)nc4)cc3c21 [Example 4.4, 8-(6-Dimethylamino-pyridin-3-yl)-3-methyl-1-(4-methyl-pyridin-3-yl)-1,3-dihydro-imidazo[4,5-c]quinolin-2-one]	300	2 (≈ 4.87 µM)	894	167	−3.8		
CNc1ncc(-c2ccc3ncc4c(c3c2)n(-c2ccc(OC)nc2Cl)c(=O)n4C)cn1 [Example 18.2, 1-(2-Chloro-6-methoxy-pyridin-3-yl)-3-methyl-8-(2-methylamino-pyrimidin-5-yl)-1,3-dihydro-imidazo[4,5-c]quinolin-2-one]	7	3 (≈ 6.7 µM)	12.2	7.8		−3.5	1
COCCOc1cncc(-c2ccc3ncc4c(c3c2)n(-c2cccnc2C)c(=O)n4C)c1 [Example 2.17, 8-[5-(2-Methoxy-ethoxy)-pyridin-3-yl]-3-methyl-1-(2-methyl-pyridin-3-yl)-1,3-dihydro-imidazo[4,5-c]quinolin-2-one]	491	> 441	803	85.6	−4.8		
